Experimental data as given in patent US9296785B2, “IL-13 receptor binding peptides” (Wake Forest University Health Sciences, priority 2009, dated 2016).

What was measured:
[1] = tested on: U-251 MG GBM cells; assay: Morphology of U-251 MG GBM cells after treatment; assay type: cell-based; settings: over-expressor of IL-13Rα2, 1 to 20 μM or equimolar concentrations
Text: (§1) We have designed double-specificity therapeutic delivery systems, which not only specifically recognize cancer cells, but also enable intracellular distribution of anti-cancer agents to their respective sites of action, like the cytosol, mitochondria and/or nucleus. Some cationic peptides lyse negatively charged mitochondrial membranes of a eukaryotic cell, leading to initiation of caspase-3 dependent cell death. We have chosen one such peptide, (KLAKLAK)2 [SEQ ID NO:1, KK] to target the mitochondria of glioblastoma multiforme (GBM) brain tumor cells. To target GBM cells, we exploited interleukin 13 receptor alpha 2 (IL-13Rα2), an IL-13 plasma membrane receptor which is over-expressed in 75% of GBM patients. To enable intracytosolic delivery of the KK peptide mediated first by the IL-13Rα2, we use Pseudomonas exotoxin A (PE) domain II [D2] based delivery vector. D2 of PE is responsible for the processing and translocation of the internalized toxin and any other protein/agent fused to its C-terminal end from the endosome to the cytosol. Thus, we have generated single chain fusion proteins composed of IL-13, D2 and KK: IL-13.D2 and IL-13.D2.KK, respectively. These proteins were expressed in BL21 (λDE3) E. coli under the bacteriophage T7 promoter control and were further processed and purified by the FPLC system to >95% purity. […]

[2] = tested on: U-87 MG GBM cells; assay: Morphology of U-87 MG GBM cells after treatment; assay type: cell-based; settings: over-expressor of IL-13Rα2, 1 to 20 μM or equimolar concentrations
Text: as §1

With “(KLAKLAK)2 (KLAKLAKKLAKLAK; Amphipathic antimicrobial peptide sequence) [KK peptide]” the “effect on cell morphology” value [1] was “did not have any measurable effect” and the “effect on cell morphology” value [2] was “did not have any measurable effect”.
